# Structures can show the parent of a compound that is named as a salt.
row,Structure (SMILES),melting point
1,"CCc1ccc(Cc2cc3cnc(Nc4ccc(N5CCNCC5)cc4)nc3n(C3CCCC3)c2=O)cc1 [Example 71, 8-Cyclopentyl-6-(4-ethyl-benzyl)-2-(4-piperazin-1-yl-phenylamino)-8H-pyrido[2,3-d]pyrimidin-7-one]",175 °C
2,"CC(C)c1ccc(Cc2cc3cnc(NC4CCC(N(C)C)CC4)nc3n(C3CCCC3)c2=O)cc1 (stereo not drawn) [Example 68, 8-Cyclopentyl-2-(4-dimethylamino-cyclohexylamino)-6-(4-isopropyl-benzyl)-8H-pyrido[2,3-d]pyrimidin-7-one]",174 to 181 °C
3,"Cc1ccccc1Cc1cc2cnc(NCCCN3CCN(C)CC3)nc2n(C2CCCC2)c1=O [Example 77, 8-Cyclopentyl-6-(2-methyl-benzyl)-2-[3-(4-methyl-piperazin-1-yl)-propylamino]-8H-pyrido[2,3-d]pyrimidin-7-one]",> 45 °C
4,"Cc1c(C(=O)c2ccccc2)c(=O)n(C2CCCC2)c2nc(Nc3ccc(N4CCNCC4)cc3)ncc12 [Example 32, 6-Benzoyl-8-cyclopentyl-5-methyl-2-(4-piperazin-1-yl-phenylamino)-8H-pyrido[2,3-d]pyrimidin-7-one]",190 °C (dec.)
5,"CN1CCN(S(=O)(=O)N2CCC(Nc3ncc4cc(Cc5ccccc5)c(=O)n(C5CCCC5)c4n3)CC2)CC1 [Example 33, 6-Benzyl-8-cyclopentyl-2-[1-(4-methyl-piperazine-1-sulfonyl)-piperidin-4-ylamino]-8H-pyrido[2,3-d]pyrimidin-7-one]",182 to 183 °C
6,"CS(=O)(=O)N1CCC(Nc2ncc3cc(Cc4ccccn4)c(=O)n(C4CCCC4)c3n2)CC1 [Example 27, 8-Cyclopentyl-2-(1-methanesulfonyl-piperidin-4-ylamino)-6-pyridin-2-ylmethyl-8H-pyrido[2,3-d]pyrimidin-7-one]",220 to 223 °C
7,"CN(C)c1ncc2cc(Cc3ccccc3)c(=O)n(C3CCCC3)c2n1 [Example 49, 6-Benzyl-8-cyclopentyl-2-dimethylamino-8H-pyrido[2,3-d]pyrimidin-7-one]",115 to 117 °C
8,"CC(C)S(=O)(=O)N1CCC(Nc2ncc3cc(Cc4ccccc4)c(=O)n(C4CCCC4)c3n2)CC1 [Example 34, 6-Benzyl-8-cyclopentyl-2-[1-(propane-2-sulfonyl)-piperidin-4-ylamino]-8H-pyrido[2,3-d]pyrimidin-7-one]",210 to 212 °C
9,"O=C(O)CCNc1ncc2cc(Cc3ccccc3)c(=O)n(C3CCCC3)c2n1 [Example 52, 3-(6-Benzyl-8-cyclopentyl-7-oxo-7,8-dihydro-pyrido[2,3-d]pyrimidin-2-ylamino)-propionic acid]",164 to 170 °C
10,"CCCN1CCC(Nc2ncc3cc(Cc4ccccc4)c(=O)n(C4CCCC4)c3n2)CC1 [Example 45, 6-Benzyl-8-cyclopentyl-2-(1-propyl-piperidin-4-ylamino)-8H-pyrido[2,3-d]pyrimidin-7-one]",143 to 145 °C
11,"O=c1c(Cc2ccccc2)cc2cnc(NC3CCCCC3)nc2n1C1CCCC1 [Example 41, 6-Benzyl-2-cyclohexylamino-8-cyclopentyl-8H-pyrido[2,3-d]pyrimidin-7-one]",128 to 130 °C
12,"CCCN1CCC(Nc2ncc3cc(Cc4ccccc4C)c(=O)n(C4CCCC4)c3n2)CC1 [Example 60, 8-Cyclopentyl-6-(2-methyl-benzyl)-2-(1-propyl-piperidin-4-ylamino)-8H-pyrido[2,3-d]pyrimidin-7-one]",149 to 151 °C
13,"CC(C)c1ccc(Cc2cc3cnc(Nc4ccc(N5CCNCC5)cc4)nc3n(C3CCCC3)c2=O)cc1 [Example 72, 8-Cyclopentyl-6-(4-isopropyl-benzyl)-2-(4-piperazin-1-yl-phenylamino)-8H-pyrido[2,3-d]pyrimidin-7-one]",140 to 145 °C
14,"CS(=O)(=O)N1CCC(Nc2ncc3cc(Cc4ccccc4)c(=O)n(C4CCCC4)c3n2)CC1 [Example 54, 6-Benzyl-8-cyclopentyl-2-(1-methanesulfonyl-piperidin-4-ylamino)-8H-pyrido[2,3-d]pyrimidin-7-one]",243 to 245 °C
15,"CN(C)CCCCNc1ncc2cc(Cc3nccs3)c(=O)n(C3CCCC3)c2n1 [Example 90, 8-Cyclopentyl-2-(4-dimethylamino-butylamino)-6-thiazol-2-ylmethyl-8H-pyrido[2,3-d]pyrimidin-7-one]",122 to 124 °C
16,"Cc1ccccc1Cc1cc2cnc(Nc3ccc(N4CCNCC4)cc3)nc2n(C2CCCC2)c1=O [Example 69, 8-Cyclopentyl-6-(2-methyl-benzyl)-2-(4-piperazin-1-yl-phenylamino)-8H-pyrido[2,3-d]pyrimidin-7-one]",210 °C
17,"CN(C)C1CCC(Nc2ncc3cc(Cc4nccs4)c(=O)n(C4CCCC4)c3n2)CC1 (stereo not drawn) [Example 87, 8-Cyclopentyl-2-(4-dimethylamino-cyclohexylamino)-6-thiazol-2-ylmethyl-8H-pyrido[2,3-d]pyrimidin-7-one]",154 to 157 °C
18,"O=c1c(Cc2ccccn2)cc2cnc(NC3CCNCC3)nc2n1C1CCCC1 (as salt: TFA) [Example 26, 8-Cyclopentyl-2-(piperidin-4-ylamino)-6-pyridin-2-ylmethyl-8H-pyrido[2,3-d]pyrimidin-7-one]",138 to 140 °C

row,Structure (SMILES),melting point
1,"CN(CCO)c1ncc2cc(Cc3ccccc3)c(=O)n(C3CCCC3)c2n1 [Example 48, 6-Benzyl-8-cyclopentyl-2-[(2-hydroxy-ethyl)-methyl-amino]-8H-pyrido[2,3-d]pyrimidin-7-one]",< 60 °C
2,"O=c1c(Cc2ccccc2)cc2cnc(NCCCn3ccnc3)nc2n1C1CCCC1 [Example 50, 6-Benzyl-8-cyclopentyl-2-(3-imidazol-1-yl-propylamino)-8H-pyrido[2,3-d]pyrimidin-7-one]",142 to 144 °C
3,"CCCN1CCC(Nc2ncc3cc(Cc4ccc(C)cc4)c(=O)n(C4CCCC4)c3n2)CC1 [Example 59, 8-Cyclopentyl-6-(4-methyl-benzyl)-2-(1-propyl-piperidin-4-ylamino)-8H-pyrido[2,3-d]pyrimidin-7-one]",154 to 155 °C
4,"CCCN1CCC(Nc2ncc3cc(Cc4ccccn4)c(=O)n(C4CCCC4)c3n2)CC1 [Example 88, 8-Cyclopentyl-2-(1-propyl-piperidin-4-ylamino)-6-pyridin-2-ylmethyl-8H-pyrido[2,3-d]pyrimidin-7-one]",133 to 134 °C
5,"Cc1ccc(Cc2cc3cnc(Nc4ccc(N5CCOC5=O)cc4)nc3n(C3CCCC3)c2=O)cc1 [Example 103, 8-Cyclopentyl-6-(4-methyl-benzyl)-2-[4-(2-oxo-oxazolidin-3-yl)-phenylamino]-8H-pyrido[2,3-d]pyrimidin-7-one]",289.2 to 290 °C
6,"Cc1c(Cc2ccccc2)c(=O)n(C2CCCC2)c2nc(Nc3ccc(N4CCNCC4)cc3)ncc12 [Example 29, 6-Benzyl-8-cyclopentyl-5-methyl-2-(4-piperazin-1-yl-phenylamino)-8H-pyrido[2,3-d]pyrimidin-7-one]",114 °C
7,"Cc1cccc(Cc2cc3cnc(NC4CCC(N(C)C)CC4)nc3n(C3CCCC3)c2=O)c1 (stereo not drawn) [Example 65, 8-Cyclopentyl-2-(4-dimethylamino-cyclohexylamino)-6-(3-methyl-benzyl)-8H-pyrido[2,3-d]pyrimidin-7-one]",191 to 194 °C
8,"CCCN1CCC(Nc2ncc3cc(Cc4ccc(C(C)C)cc4)c(=O)n(C4CCCC4)c3n2)CC1 [Example 63, 8-Cyclopentyl-6-(4-isopropyl-benzyl)-2-(1-propyl-piperidin-4-ylamino)-8H-pyrido[2,3-d]pyrimidin-7-one]",156 to 160 °C
9,"CNc1ncc2cc(Cc3ccccc3)c(=O)n(C3CCCC3)c2n1 [Example 47, 6-Benzyl-8-cyclopentyl-2-methylamino-8H-pyrido[2,3-d]pyrimidin-7-one]",144 to 146 °C
10,"CCc1ccc(Cc2cc3cnc(NC4CCC(N(C)C)CC4)nc3n(C3CCCC3)c2=O)cc1 (stereo not drawn) [Example 67, 8-Cyclopentyl-2-(4-dimethylamino-cyclohexylamino)-6-(4-ethyl-benzyl)-8H-pyrido[2,3-d]pyrimidin-7-one]",175 to 181 °C
11,"O=c1c(Cc2ccccc2)cc2cnc(NCCc3cnc[nH]3)nc2n1C1CCCC1 [Example 51, 6-Benzyl-8-cyclopentyl-2-[2-(3H-imidazol-4-yl)-ethylamino]-8H-pyrido[2,3-d]pyrimidin-7-one]",163 to 165 °C
12,"CCCN1CCC(Nc2ncc3cc(Cc4cccc(C)c4)c(=O)n(C4CCCC4)c3n2)CC1 [Example 61, 8-Cyclopentyl-6-(3-methyl-benzyl)-2-(1-propyl-piperidin-4-ylamino)-8H-pyrido[2,3-d]pyrimidin-7-one]",118 to 120 °C
13,"Cc1cccc(Cc2cc3cnc(Nc4ccc(N5CCNCC5)cc4)nc3n(C3CCCC3)c2=O)c1 [Example 70, 8-Cyclopentyl-6-(3-methyl-benzyl)-2-(4-piperazin-1-yl-phenylamino)-8H-pyrido[2,3-d]pyrimidin-7-one]",200 to 203 °C
14,"Cc1ccccc1Cc1cc2cnc(NCCCN3CCOCC3)nc2n(C2CCCC2)c1=O [Example 74, 8-Cyclopentyl-6-(2-methyl-benzyl)-2-(3-morpholin-4-yl-propylamino)-8H-pyrido[2,3-d]pyrimidin-7-one]",118 to 119 °C
15,"Cc1ccccc1Cc1cc2cnc(NCCN3CCOCC3)nc2n(C2CCCC2)c1=O [Example 73, 8-Cyclopentyl-6-(2-methyl-benzyl)-2-(2-morpholin-4-yl-ethylamino)-8H-pyrido[2,3-d]pyrimidin-7-one]",134 to 137 °C
16,"Cc1ccc(Cc2cc3cnc(NC4CCC(N(C)C)CC4)nc3n(C3CCCC3)c2=O)cc1 (stereo not drawn) [Example 66, 8-Cyclopentyl-2-(4-dimethylamino-cyclohexylamino)-6-(4-methyl-benzyl)-8H-pyrido[2,3-d]pyrimidin-7-one]",179 to 184 °C
17,"O=c1c(Cc2ccccc2)cc2cnc(NCc3ccccc3)nc2n1C1CCCC1 [Example 43, 6-Benzyl-2-benzylamino-8-cyclopentyl-8H-pyrido[2,3-d]pyrimidin-7-one]",186 to 188 °C
18,"CN(C)CCCCNc1ncc2cc(Cc3ccccn3)c(=O)n(C3CCCC3)c2n1 [Example 89, 8-Cyclopentyl-2-(4-dimethylamino-butylamino)-6-pyridin-2-ylmethyl-8H-pyrido[2,3-d]pyrimidin-7-one]",105 to 107 °C
